pEC50, pIC50: −log10 of the molar value. Like-named read-outs stand apart in the source and are kept apart here.
Experiments:
[1] = molecular target: T1, brain MAO-B enzyme (Homo sapiens, UniProt P27338); test: Plasma concentration–MAO-B enzyme inhibition relationship (simple Emax model); assay type: in vivo; conditions: for Emax (maximum MAO-B occupancy) / EC50: pre-scan plasma concentration; for EC50: read-out: EC50 (plasma concentration at half-maximal occupancy) (converted)
T1 sequence (P27338 1-520): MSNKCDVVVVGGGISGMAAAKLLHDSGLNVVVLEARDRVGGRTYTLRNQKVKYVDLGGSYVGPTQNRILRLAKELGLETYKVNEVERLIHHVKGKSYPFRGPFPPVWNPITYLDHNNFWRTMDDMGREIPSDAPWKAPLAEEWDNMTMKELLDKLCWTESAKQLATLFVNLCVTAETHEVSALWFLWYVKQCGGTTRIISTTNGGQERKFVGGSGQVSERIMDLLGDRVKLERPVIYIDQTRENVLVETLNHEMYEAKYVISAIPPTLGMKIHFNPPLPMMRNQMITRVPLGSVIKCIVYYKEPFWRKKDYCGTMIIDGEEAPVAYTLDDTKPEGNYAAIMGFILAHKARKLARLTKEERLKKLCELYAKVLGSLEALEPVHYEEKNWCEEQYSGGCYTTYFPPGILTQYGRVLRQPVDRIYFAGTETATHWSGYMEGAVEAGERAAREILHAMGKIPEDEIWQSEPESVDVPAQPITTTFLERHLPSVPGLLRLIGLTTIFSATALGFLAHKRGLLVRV
Procedure: The PK/PD analysis was performed using Phoenix WinNonlin software version 6.2 (Pharsight Corporation, Mountain View, CA, USA).

[2] = Pre-PET sembragiline plasma concentration at steady state (LC-MS/MS); assay type: in vivo, human
[3] = set-up: method as in PMID 22451094; conditions: elderly subjects; steady-state conditions; plasma; cited from earlier work
[4] = molecular target: MAO-B enzyme; set-up: method as in doi:10.1016/j.jalz.2013.05.1757; conditions: MAO enzymatic activity and displacement assays; read-out: IC50 from in vitro affinity assays of the MAO-B enzyme; cited from earlier work
[5] = set-up: method as in PMID 22451094; conditions: phase 1 and 2 studies, approximately 1040 subjects; cited from earlier work
[6] = molecular target: T1, brain MAO-B enzyme; conditions: ref Roche data on file, cited from earlier work; for Brain MAO-B inhibition: young healthy subjects
[7] = test system: MAO-A; set-up: method as in doi:10.1016/j.jalz.2013.05.1757; conditions: MAO-B over MAO-A; cited from earlier work
[8] = Safety assessments in this PET study; assay type: in vivo, human
Procedure: The safety of sembragiline was assessed by monitoring vital signs, laboratory tests and adverse events (AEs), and by evaluating the risk of suicide using the Columbia Suicide Severity Rating Scale.

[9] = 1 and 5 mg daily; moderate AD; compared with placebo; cited from earlier work
[10] = AD patients, frontal cortex, steady state
[11] = AD patients, hippocampus, steady state
[12] = AD patients, striatum, steady state
[13] = EC subjects, frontal cortex, steady state
[14] = EC subjects, hippocampus, steady state
[15] = EC subjects, striatum, steady state

Emax (maximum MAO-B occupancy) [1, 10]: 81.1 (CV%: 3.2) | EC50 [1, 10]: 3.1 nM | Emax (maximum MAO-B occupancy) [1, 11]: 85.9 (CV%: 4.1) | EC50 [1, 11]: 3.77 nM | Emax (maximum MAO-B occupancy) [1, 12]: 87.8 (CV%: 1.8) | EC50 [1, 12]: 3.24 nM | Emax (maximum MAO-B occupancy) [1, 13]: 80.1 (CV%: 8.9) | EC50 [1, 13]: 4.59 nM | Emax (maximum MAO-B occupancy) [1, 14]: 89.1 (CV%: 9.6) | EC50 [1, 14]: 5.99 nM | Emax (maximum MAO-B occupancy) [1, 15]: 88.8 (CV%: 7.5) | EC50 [1, 15]: 4.88 nM | Estimated Emax of MAO-B inhibition ([1]; across ROIs and for both populations, steady state): 80–89% | pEC50 ([1]; across ROIs and for both populations, steady state, read-out: Estimated EC50 (plasma concentration)): 8.23 to 8.53 | Emax ([1]; across ROIs and for both populations, steady state, read-out: Estimated Emax of MAO-B inhibition): 80 to 90% | Sembragiline concentration needed for near-complete MAO-B inhibition in the brain ([1]; regardless of the population): around 20 ng/mL | Plasma concentration at which the plateau in MAO-B inhibition occurred ([1]; steady state, AD patients and EC subjects): 20 to 50 ng/mL | Pre-PET sembragiline plasma concentration at steady state, mean ([2]; AD patients, 1 mg q.d. for 14 days, N 3): 41.9 ng/mL | Pre-PET sembragiline plasma concentration at steady state, mean ([2]; AD patients, 5 mg loading day 1 then 0.1 mg q.d. Day 2–15, N 2): 2.55 ng/mL | Pre-PET sembragiline plasma concentration at steady state, mean ([2]; AD patients, 5 mg loading day 1 then 0.2 mg q.d. Day 2–7, N 3): 7.06 ng/mL | Pre-PET sembragiline plasma concentration at steady state, mean ([2]; AD patients, 5 mg q.d. for 6–9 days, N 2): 96.7 ng/mL | Pre-PET sembragiline plasma concentration at steady state, mean ([2]; EC subjects, 1 mg q.d. for 14 days, N 3): 33.9 ng/mL | Pre-PET sembragiline plasma concentration at steady state, mean ([2]; EC subjects, 5 mg loading day 1 then 0.2 mg q.d. Day 2–7, N 3): 3.29 ng/mL
Compound: CC(=O)N[C@H]1CC(=O)N(c2ccc(OCc3cccc(F)c3)cc2)C1 [sembragiline]
Terminal half-life [3]: 50 to 65 h | pIC50 [4]: 8.22 to 8.30 | Safety and tolerability [5]: safe and well tolerated | Brain penetration ([6]; healthy young men, PET imaging): crosses the blood–brain barrier | Brain MAO-B inhibition ([6]; 5 mg daily for 2–10 days, cortical regions): 52–78% | Brain MAO-B inhibition ([6]; 5 mg daily for 2–10 days, subcortical regions): 73–87% | Brain MAO-B inhibition ([6]; 15 mg, cortical regions): 68–74% | Brain MAO-B inhibition ([6]; 15 mg, subcortical regions): 83–86% | Potency in inhibiting MAO-B relative to MAO-A [7]: approximately 600 fold | AEs reported as drug-related ([8]; 16 treated subjects (AD and EC)): 11 of 20 | Changes in laboratory parameters, vital signs or ECG measurements ([8]; AD patients and EC subjects): no clinically significant changes | Tolerability ([8]; AD patients and EC subjects, 0.1–5 mg daily for 6–15 days): well tolerated | Primary efficacy outcome on cognition (ADAS-Cog11) [9]: failed on the primary efficacy outcome on cognition

Reference: publication PMC5281649 (European Journal of Nuclear Medicine and Molecular Imaging, 2016)
